Experimental data: patent US10888561B2, “CGRP receptor antagonists” (Heptares Therapeutics Limited, priority 2015, dated 2021)

Assays:
CGRP receptor = CGRP receptor (Homo sapiens (Human), UniProt O60894+Q16602); settings: literature; cited from earlier work
migraine = settings: humans, at 24 h after intravenous infusion of a 2.5 mg dose; cited from earlier work
[1] = Thermodynamic solubility profiling; type: physicochemical; settings: PBS buffer pH 7.4, 24 h at rt
Method: Thermodynamic solubility profiling. A 50 mM DMSO stock solution of test compound was prepared, and from this, a working solution of 1 mM was prepared by dilution with DMSO. The UV absorbance of working solution was scanned from 220 nm to 1000 nm to identify the wavelength maxima of test compound. The 1 mM working solution was then serially diluted in DMSO to different concentrations to determine linearity/calibration curve. […] The resulting solution was then kept on a RotoSpin shaker at 50 rpm for 24 h at rt before the solution was filtered using 0.45 micron PVDF injector filters in order to remove the insoluble fraction of the compound. Subsequently, 150 uL of the filtrate is taken for quantification using a UV spectrophotometer, acquiring the optical density of standard solutions and test compound at the same wavelength maxima. From the optical density of test compound the thermodynamic solubility is calculated using the linearity/calibration curve and expressed as micromolar (μM). Solubility profiles of certain compounds of the invention are detailed in Table 7.

Chain of CGRP receptor (Q16602 23-461): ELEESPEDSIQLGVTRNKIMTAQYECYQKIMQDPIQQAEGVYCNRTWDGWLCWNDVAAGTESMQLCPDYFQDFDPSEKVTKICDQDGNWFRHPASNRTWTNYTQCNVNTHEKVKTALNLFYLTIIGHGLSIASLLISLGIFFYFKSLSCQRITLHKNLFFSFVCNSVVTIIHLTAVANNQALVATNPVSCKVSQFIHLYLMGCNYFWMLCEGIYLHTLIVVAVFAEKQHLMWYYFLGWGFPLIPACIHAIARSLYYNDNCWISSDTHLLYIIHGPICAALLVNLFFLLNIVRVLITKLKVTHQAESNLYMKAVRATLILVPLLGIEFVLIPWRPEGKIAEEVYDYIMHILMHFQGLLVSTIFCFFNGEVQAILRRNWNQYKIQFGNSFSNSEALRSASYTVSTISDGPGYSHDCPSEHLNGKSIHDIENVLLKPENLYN
Chain of CGRP receptor (O60894 27-148): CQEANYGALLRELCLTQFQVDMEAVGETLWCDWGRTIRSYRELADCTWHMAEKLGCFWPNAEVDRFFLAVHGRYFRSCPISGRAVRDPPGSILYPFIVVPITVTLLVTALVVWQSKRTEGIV

Compound | kinetics at the CGRP receptor (CGRP receptor) | headache-free rate (migraine) [%] | Thermodynamic solubility (μM) pH 7.4 [1] [μM]
O=C(CN1C(=O)C2(CCCC2)NC[C@H]1c1cc(F)cc(F)c1)Nc1ccc2c(c1)C[C@@]1(C2)C(=O)Nc2ncccc21 [MK-3207] | relatively slow dissociation |  | 
NCCCC[C@H](NC(=O)[C@@H](Cc1cc(Br)c(O)c(Br)c1)NC(=O)N1CCC(N2Cc3ccccc3NC2=O)CC1)C(=O)N1CCN(c2ccncc2)CC1 [olcegepant] | slow kinetics | 47 | 
Cc1cc(C[C@@H](NC(=O)N2CCC(N3Cc4ccccc4NC3=O)CC2)C(=O)N[C@@H](CC2CCNCC2)C(=O)N2CCN(c3ccncc3)CC2)cc2cn[nH]c12 [Example 10, N-[(2R)-3-(7-methyl-1H-indazol-5-yl)-1-oxo-1-({(2S) (2S)-1-oxo-3-(piperidin-4-yl)-1-[4-(pyridin-4-yl)piperazin-1-yl]propan-2-yl}amino)propan-2-yl]-4-(2-oxo-1,4-dihydroquinazolin-3(2H)-yl)piperidine-1-carboxamide] |  |  | 1205
